Assay results published in patent publication US8993595B2, “Macrocyclic serine protease inhibitors” (priority 2009, dated 2015).

What was measured:
[1] = molecular target: T1, HCV NS3-4A Protease Genotype 4a (Hepatitis C virus genotype 4a, UniProt O39929); assay: HCV protease assay, recombinant NS3-4A genotype 4a; assay type: biochemical; conditions: mean ± SD, 3 experiments
T1 construct: recombinant HCV NS3-4A proteases
Description: (§1) The compounds were tested at a variety of concentrations in assay buffer containing a final DMSO concentration of 5%. Reactions were allowed to proceed for 60 min at room temperature and fluorescence measurements were recorded with a Tecan Infinity Spectrofluorimeter. The IC50 values were determined from the percent inhibition versus concentration data using a sigmoidal non-linear regression analysis based on four parameters with Tecan Magellan software.
(§2) Compound 52 was tested against genotypes 1a, 1b, 2a, 3a, and 4a of recombinant HCV NS3-4A proteases, along with other cellular proteases.

[2] = system: JFH-1 (genotype 2a) virus in HPC cells; assay: HCV in vitro infection core ELISA assay; assay type: cell-based
Description: HPC cells were infected with JFH-1 (genotype 2a) and treated with the compound for 4 days (virus inoculum was removed after 16 hrs). Remaining virus was measured by an anti-HCV core ELISA. Compound cytotoxicity was also measured in parallel using a colorimetric proliferation assay as described in Example 5.
The HCV in vitro infection core ELISA assay measures the ability of a test compound to inhibit replication of an infectious HCV (strain JFH-1; genotype 2a) in cell culture. […] We have developed this model for determining the efficacy of antiviral compounds against an infectious virus in vitro using HCV producing cells (HPC), a proprietary Huh-7-derived cell sublineage capable of propagating the JFH-1 HCV virus. The readout of the assay is quantification of HCV core protein by ELISA 5 days post infection with JFH-1 virus and treatment with a test compound. […]
OPD solution was prepared using 1 OPD tablet+12 mL citrate/phosphate buffer (16 mM citric acid, 27 mM Na2HPO4) plus 5 μL 30% H2O2 per plate. […] The reaction was stopped with 100 μL/well of 2N H2SO4, and absorbance measured at A490 nm in a Victor^3 V 1420 multilabel counter (Perkin Elmer). The EC50 values for each compound were calculated from dose response curves from the resulting best-fit equations determined by Microsoft Excel and XLfit 4.1 software. […]

[3] = molecular target: T2, HCV NS3-4A Protease Genotype 1a (Hepatitis C virus genotype 1a, UniProt P27958); assay: HCV protease assay, recombinant NS3-4A genotype 1a; assay type: biochemical; conditions: mean ± SD, 3 experiments
T2 construct: recombinant HCV NS3-4A proteases
T2 sequence (P27958 1658-1711): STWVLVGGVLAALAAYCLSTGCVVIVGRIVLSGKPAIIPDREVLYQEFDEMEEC
T2 sequence (P27958 1027-1657): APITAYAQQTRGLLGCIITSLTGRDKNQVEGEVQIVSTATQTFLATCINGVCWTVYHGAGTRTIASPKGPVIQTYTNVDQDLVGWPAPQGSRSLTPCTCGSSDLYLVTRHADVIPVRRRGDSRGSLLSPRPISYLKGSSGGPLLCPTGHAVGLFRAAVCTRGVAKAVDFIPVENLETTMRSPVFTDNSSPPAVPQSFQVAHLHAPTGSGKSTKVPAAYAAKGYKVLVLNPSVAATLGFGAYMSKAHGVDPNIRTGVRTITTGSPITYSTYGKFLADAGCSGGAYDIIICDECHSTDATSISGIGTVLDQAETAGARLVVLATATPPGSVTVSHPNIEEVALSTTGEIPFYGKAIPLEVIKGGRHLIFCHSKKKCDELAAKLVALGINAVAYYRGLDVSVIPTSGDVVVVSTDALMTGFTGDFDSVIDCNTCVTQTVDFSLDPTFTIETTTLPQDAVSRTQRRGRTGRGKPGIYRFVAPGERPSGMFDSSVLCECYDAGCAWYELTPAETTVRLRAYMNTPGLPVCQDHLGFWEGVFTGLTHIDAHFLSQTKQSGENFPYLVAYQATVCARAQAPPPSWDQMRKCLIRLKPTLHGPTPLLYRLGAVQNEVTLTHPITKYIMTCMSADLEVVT
Description: as §1, §2

T1 sequence (O39929 1658-1711): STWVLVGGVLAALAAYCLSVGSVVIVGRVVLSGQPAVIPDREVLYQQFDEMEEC
T1 sequence (O39929 1027-1657): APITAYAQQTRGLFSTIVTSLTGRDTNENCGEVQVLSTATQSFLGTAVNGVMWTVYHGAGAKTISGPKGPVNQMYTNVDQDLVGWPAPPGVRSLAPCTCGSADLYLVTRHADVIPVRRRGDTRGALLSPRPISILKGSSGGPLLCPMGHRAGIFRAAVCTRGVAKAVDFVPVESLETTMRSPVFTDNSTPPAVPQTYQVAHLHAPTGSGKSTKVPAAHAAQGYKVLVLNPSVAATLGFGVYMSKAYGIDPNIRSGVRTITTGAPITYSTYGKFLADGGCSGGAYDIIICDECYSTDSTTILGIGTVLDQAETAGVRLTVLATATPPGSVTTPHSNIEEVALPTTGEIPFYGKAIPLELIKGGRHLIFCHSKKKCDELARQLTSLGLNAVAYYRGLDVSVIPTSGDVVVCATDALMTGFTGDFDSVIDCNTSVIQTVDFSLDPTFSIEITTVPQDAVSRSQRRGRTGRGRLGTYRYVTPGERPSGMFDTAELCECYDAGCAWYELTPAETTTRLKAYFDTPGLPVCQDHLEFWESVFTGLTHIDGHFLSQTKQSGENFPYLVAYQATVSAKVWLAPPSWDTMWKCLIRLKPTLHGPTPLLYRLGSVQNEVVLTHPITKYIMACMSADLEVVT

In the case of `COc1ccc2c(O[C@H]3CCN4C(=O)N(C)CCCC/C=C\[C@@H]5C[C@@]5(C(=O)NS(=O)(=O)C5(C)CC5)NC(=O)[C@@H]4C3)cc(-c3nc(C(F)(F)F)cs3)nc2c1C` [Compound 52, 1-methyl-cyclopropanesulfonic acid{(Z)-(1S,4R,6S,18S)-18-[7-methoxy-8-methyl-2-(4-trifluoromethyl-thiazol-2-yl)-quinolin-4-yloxy]-13-methyl-2,14-dioxo-3,13,15-triaza-tricyclo[13.4.0.0*4,6*]nonadec-7-ene-4-carbonyl}amide], the IC50 [1] is reported as 0.81 ± 0.03 nM, the “Selectivity Index” value ([2]; 2a virus) is reported as 2,568 and the EC50 ([2]; Hepatitis C virus, 96 h, 2a virus (JFH-1), HPC cells, 4 days, anti-HCV core ELISA) is reported as 4.4 ± 0.6 nM. It also gave an IC50 [3] of 1.1 ± 0.1 nM.
